According to the NIST ThermoML archive (doi:10.1016/j.fluid.2013.05.001):
Where “and” joins values, the source holds several entries; their conditions need not be identical. Equal entries are not always repeated.

Assays:
[1] = mn = molality of the nth substance listed, in mol/kg; details: 85.9 kPa, Liquid, Vibrating tube method
[2] = 298.15 K, 85.9 kPa, Liquid; for viscosity: Capillary tube (Ostwald / Ubbelohde) method; for mass density: Vibrating tube method
[3] = refractive index (Na D-line) (dimensionless); details: 298.15 K; 85.9 kPa; Liquid; Standard Abbe refractometry

CC(=O)Nc1ccc(OC(=O)c2ccccc2O)cc1 [salophen] + C1COCCO1
mass density, [1]
Details	m1 = 0.0106	m1 = 0.0284	m1 = 0.0495	m1 = 0.0693	m1 = 0.0855	m1 = 0.1104	m1 = 0.1313	m1 = 0.1482	m1 = 0.1707
288.15 K	1039.84 kg/m3 and 1028.52 kg/m3	1029.51 kg/m3 and 1040.81 kg/m3	1030.66 kg/m3 and 1041.93 kg/m3	1031.72 kg/m3 and 1042.96 kg/m3	1032.57 kg/m3 and 1043.79 kg/m3	1033.86 kg/m3 and 1045.04 kg/m3	1034.92 kg/m3 and 1046.05 kg/m3	1035.78 kg/m3 and 1046.86 kg/m3	1036.89 kg/m3 and 1047.91 kg/m3
308.15 K	1017.22 kg/m3	1018.23 kg/m3	1019.39 kg/m3	1020.48 kg/m3	1021.35 kg/m3	1022.68 kg/m3	1023.75 kg/m3	1024.62 kg/m3	1025.75 kg/m3
318.15 K	1005.88 kg/m3	1006.9 kg/m3	1008.09 kg/m3	1009.19 kg/m3	1010.08 kg/m3	1011.41 kg/m3	1012.5 kg/m3	1013.37 kg/m3	1014.52 kg/m3

CC(=O)Nc1ccc(OC(=O)c2ccccc2O)cc1 [salophen] + C1CCOC1
mass density, [1]
Details	m1 = 0.0103	m1 = 0.0316	m1 = 0.0496	m1 = 0.0699	m1 = 0.0908	m1 = 0.1099	m1 = 0.1293	m1 = 0.1498	m1 = 0.1704
288.15 K	893.79 kg/m3 and 882.94 kg/m3	884.82 kg/m3 and 895.65 kg/m3	886.39 kg/m3 and 897.21 kg/m3	888.13 kg/m3 and 898.95 kg/m3	889.9 kg/m3 and 900.71 kg/m3	891.51 kg/m3 and 902.31 kg/m3	893.11 kg/m3 and 903.88 kg/m3	894.79 kg/m3 and 905.55 kg/m3	896.46 kg/m3 and 907.21 kg/m3
308.15 K	871.92 kg/m3	873.82 kg/m3	875.41 kg/m3	877.17 kg/m3	878.97 kg/m3	880.59 kg/m3	882.21 kg/m3	883.9 kg/m3	885.6 kg/m3
318.15 K	860.78 kg/m3	862.7 kg/m3	864.3 kg/m3	866.08 kg/m3	867.89 kg/m3	869.54 kg/m3	871.17 kg/m3	872.89 kg/m3	874.58 kg/m3

C1COCCO1 [1,4-dioxane]
Details	mass density [kg/m3]	refractive index	viscosity [mPa·s]
[2]	1027.93	–	1.158
[3]	–	1.4188	–

CC(=O)Nc1ccc(OC(=O)c2ccccc2O)cc1 [salophen] + CC(=O)N(C)C
mass density, [1]
Details	m1 = 0.0106	m1 = 0.0323	m1 = 0.0497	m1 = 0.0704	m1 = 0.0899	m1 = 0.1092	m1 = 0.129	m1 = 0.1492	m1 = 0.1742
288.15 K	946.52 kg/m3 and 937.32 kg/m3	938.87 kg/m3 and 948.07 kg/m3	940.11 kg/m3 and 949.32 kg/m3	941.6 kg/m3 and 950.78 kg/m3	942.99 kg/m3 and 952.18 kg/m3	944.36 kg/m3 and 953.53 kg/m3	945.78 kg/m3 and 954.93 kg/m3	947.22 kg/m3 and 956.35 kg/m3	949.07 kg/m3 and 958.13 kg/m3
308.15 K	928.08 kg/m3	929.62 kg/m3	930.86 kg/m3	932.36 kg/m3	933.77 kg/m3	935.17 kg/m3	936.59 kg/m3	938.07 kg/m3	939.94 kg/m3
318.15 K	918.85 kg/m3	920.4 kg/m3	921.65 kg/m3	923.15 kg/m3	924.58 kg/m3	925.99 kg/m3	927.42 kg/m3	928.91 kg/m3	930.75 kg/m3

CC(=O)N(C)C [N,N-dimethylethanamide]
Details	mass density [kg/m3]	refractive index	viscosity [mPa·s]
[2]	936.57	–	0.961
[3]	–	1.436	–

C[S+](C)[O-] [dimethyl sulfoxide]
Details	mass density [kg/m3]	refractive index	viscosity [mPa·s]
[2]	1095.29	–	1.867
[3]	–	1.4762	–

CC(=O)Nc1ccc(OC(=O)c2ccccc2O)cc1 [salophen] + C[S+](C)[O-]
mass density, [1]
Details	m1 = 0.0099	m1 = 0.0307	m1 = 0.0493	m1 = 0.07	m1 = 0.0911	m1 = 0.1086	m1 = 0.1311	m1 = 0.1483	m1 = 0.1717
288.15 K	1105.64 kg/m3 and 1095.61 kg/m3	1096.3 kg/m3 and 1106.33 kg/m3	1096.92 kg/m3 and 1106.94 kg/m3	1097.62 kg/m3 and 1107.62 kg/m3	1098.35 kg/m3 and 1108.33 kg/m3	1098.97 kg/m3 and 1108.91 kg/m3	1099.71 kg/m3 and 1109.66 kg/m3	1100.31 kg/m3 and 1110.22 kg/m3	1101.12 kg/m3 and 1111 kg/m3
308.15 K	1085.58 kg/m3	1086.29 kg/m3	1086.93 kg/m3	1087.63 kg/m3	1088.38 kg/m3	1089 kg/m3	1089.77 kg/m3	1090.36 kg/m3	1091.18 kg/m3
318.15 K	1075.56 kg/m3	1076.29 kg/m3	1076.95 kg/m3	1077.68 kg/m3	1078.44 kg/m3	1079.07 kg/m3	1079.87 kg/m3	1080.47 kg/m3	1081.32 kg/m3

C1CCOC1 [tetrahydrofuran]
Details	mass density [kg/m3]	refractive index	viscosity [mPa·s]
[2]	882.02	–	0.448
[3]	–	1.4047	–
